What follows are cell lines tested with CC1(COc2ccc3c(c2)ncn3-c2ccc3cccc(N4CCC(N)CC4)c3n2)COC1 [Crenolanib] + O=C(c1cc(Cc2n[nH]c(=O)c3ccccc23)ccc1F)N1CCN(C(=O)C2CC2)CC1 [Olaparib] (partner 8 µM) (assay: relative viability (nuclei count vs DMSO), 5 days (fraction); higher = more cells survive). Settings: first compound 0.01 µM.
Summary of the method: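 After 5 days of treatment, lung cancer cells in 1536-well plates were fixed and stained in a single step (final 0.05% Triton X-100, 1% formaldehyde, 1 ug/ml Hoechst) and their nuclei counted on 4× images. Treatment had been applied by pin tool the day after seeding as one drug alone or as a fixed anchor-drug dose with five library-drug doses (not always all listed) in √10 steps. Relative viability is the nuclei count of treated wells divided by that of vehicle wells, and values are medians of duplicate plates.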
NCI-H1395 was tested, and the relative viability was 0.495.
With 201T the relative viability was 0.83.
NCI-H1975 gave a relative viability of 0.768.
HOP-62 was tested, and the relative viability was 0.398.
For NCI-H2347, the relative viability was 0.555.
Cell Line NCI-H1355 has a relative viability of 0.812.
With NCI-H650 the relative viability was 0.4.
Cell Line NCI-H1666 has a relative viability of 0.764.
With H3255 the relative viability was 0.57.
NCI-H23 showed a relative viability of 0.311.
For NCI-H1915, the relative viability was 0.267.
NCI-H1437 gave a relative viability of 0.632.
In the case of NCI-H322M, the relative viability was 0.741.
NCI-H1792 gave a relative viability of 0.439.
HCC-366 showed a relative viability of 0.414.
NCI-H1793 showed a relative viability of 0.993.
PC-3 [JPC-3] gave a relative viability of 1.26.
For EKVX, the relative viability was 0.93.
With LCLC-103H the relative viability was 0.751.
Cell Line NCI-H1944 has a relative viability of 0.404.
NCI-H1993 gave a relative viability of 1.16.
With ABC-1 the relative viability was 1.01.
For NCI-H358, the relative viability was 0.641.
With RERF-LC-KJ the relative viability was 0.864.

Same assay, conditions: first compound 0.03162 µM
In the case of HCC-15, the relative viability was 0.734.
HCC-827 was tested, and the relative viability was 0.659.
NCI-H441 showed a relative viability of 0.524.
In the case of LOU-NH91, the relative viability was 0.88.
NCI-H460 was tested, and the relative viability was 0.366.
In the case of NCI-H727, the relative viability was 0.652.
NCI-H1755 was tested, and the relative viability was 0.801.
NCI-H1395 showed a relative viability of 0.453.
Work on 201T yielded a relative viability of 0.852.
NCI-H1975 showed a relative viability of 0.699.
With HOP-62 the relative viability was 0.192.
NCI-H2347 was tested, and the relative viability was 0.457.
Cell Line NCI-H1355 has a relative viability of 0.817.
NCI-H650 showed a relative viability of 0.379.
NCI-H1666 was tested, and the relative viability was 0.717.
In the case of H3255, the relative viability was 0.541.
NCI-H23 gave a relative viability of 0.278.
For NCI-H1915, the relative viability was 0.278.
NCI-H1437 was tested, and the relative viability was 0.636.
Cell Line NCI-H322M has a relative viability of 0.779.
In the case of NCI-H1792, the relative viability was 0.397.
With NCI-H2085 the relative viability was 0.752.
In the case of HCC-366, the relative viability was 0.362.
NCI-H1793 showed a relative viability of 0.947.
EKVX gave a relative viability of 0.849.
In the case of LCLC-103H, the relative viability was 0.759.
NCI-H1944 was tested, and the relative viability was 0.387.
For NCI-H1993, the relative viability was 1.13.
Cell Line ABC-1 has a relative viability of 0.78.
With NCI-H358 the relative viability was 0.594.
For RERF-LC-KJ, the relative viability was 0.942.

Same assay, conditions: first compound 0.1 µM
HCC-15 was tested, and the relative viability was 0.726.
HCC-827 showed a relative viability of 0.655.
NCI-H441 gave a relative viability of 0.608.
With LOU-NH91 the relative viability was 0.837.
For A-427, the relative viability was 0.759.
Cell Line NCI-H460 has a relative viability of 0.405.
Cell Line NCI-H727 has a relative viability of 0.646.
With NCI-H1755 the relative viability was 0.845.
NCI-H2405 gave a relative viability of 0.742.
Cell Line NCI-H1395 has a relative viability of 0.543.
201T showed a relative viability of 0.786.
NCI-H1975 was tested, and the relative viability was 0.73.
HOP-62 showed a relative viability of 0.45.
In the case of NCI-H2347, the relative viability was 0.536.
Work on NCI-H1355 yielded a relative viability of 0.739.
Work on NCI-H650 yielded a relative viability of 0.343.
Work on NCI-H1666 yielded a relative viability of 0.723.
Work on H3255 yielded a relative viability of 0.552.
Cell Line NCI-H23 has a relative viability of 0.282.
With NCI-H1915 the relative viability was 0.266.
NCI-H1437 gave a relative viability of 0.621.
Work on NCI-H322M yielded a relative viability of 0.651.
For NCI-H1792, the relative viability was 0.334.
NCI-H2085 gave a relative viability of 0.714.
In the case of HCC-366, the relative viability was 0.344.
Cell Line NCI-H1793 has a relative viability of 0.889.
With PC-3 [JPC-3] the relative viability was 1.01.
Work on EKVX yielded a relative viability of 0.841.
LCLC-103H showed a relative viability of 0.68.
NCI-H1944 was tested, and the relative viability was 0.412.
NCI-H1993 showed a relative viability of 1.07.
For ABC-1, the relative viability was 0.614.
With NCI-H358 the relative viability was 0.529.
RERF-LC-KJ gave a relative viability of 0.871.

Same assay, conditions: first compound 0.3162 µM
HCC-15 was tested, and the relative viability was 0.631.
HCC-827 gave a relative viability of 0.634.
Work on NCI-H441 yielded a relative viability of 0.56.
LOU-NH91 showed a relative viability of 0.971.
With A-427 the relative viability was 0.847.
Work on NCI-H460 yielded a relative viability of 0.438.
NCI-H727 was tested, and the relative viability was 0.627.
Work on NCI-H1755 yielded a relative viability of 0.898.
Cell Line NCI-H2405 has a relative viability of 0.919.
For NCI-H1395, the relative viability was 0.439.
In the case of 201T, the relative viability was 0.867.
In the case of NCI-H1975, the relative viability was 0.726.
HOP-62 gave a relative viability of 0.387.
NCI-H2347 showed a relative viability of 0.59.
With NCI-H1355 the relative viability was 0.784.
For NCI-H650, the relative viability was 0.339.
NCI-H1666 gave a relative viability of 0.692.
H3255 showed a relative viability of 0.586.
Work on NCI-H23 yielded a relative viability of 0.347.
Cell Line NCI-H1915 has a relative viability of 0.283.
Cell Line NCI-H1437 has a relative viability of 0.647.
Work on NCI-H322M yielded a relative viability of 0.806.
NCI-H1792 was tested, and the relative viability was 0.757.
For NCI-H2085, the relative viability was 0.782.
HCC-366 was tested, and the relative viability was 0.509.
In the case of NCI-H1793, the relative viability was 1.13.
In the case of PC-3 [JPC-3], the relative viability was 1.06.
Cell Line EKVX has a relative viability of 0.965.
LCLC-103H showed a relative viability of 0.698.
For NCI-H1944, the relative viability was 0.413.
NCI-H1993 gave a relative viability of 1.15.
In the case of ABC-1, the relative viability was 0.668.
In the case of NCI-H358, the relative viability was 0.678.
Cell Line RERF-LC-KJ has a relative viability of 1.03.

Same assay, conditions: first compound 1 µM
Work on HCC-15 yielded a relative viability of 0.63.
In the case of HCC-827, the relative viability was 0.677.
In the case of NCI-H441, the relative viability was 0.535.
LOU-NH91 showed a relative viability of 0.905.
Cell Line A-427 has a relative viability of 0.629.
Cell Line NCI-H460 has a relative viability of 0.415.
Work on NCI-H727 yielded a relative viability of 0.847.
With NCI-H1755 the relative viability was 0.848.
Cell Line NCI-H2405 has a relative viability of 0.86.
NCI-H1395 was tested, and the relative viability was 0.45.
With 201T the relative viability was 0.86.
NCI-H1975 was tested, and the relative viability was 0.731.
HOP-62 showed a relative viability of 0.33.
With NCI-H2347 the relative viability was 0.636.
For NCI-H1355, the relative viability was 0.651.
Work on NCI-H650 yielded a relative viability of 0.325.
In the case of NCI-H1666, the relative viability was 0.749.
